Patent US11535621B2, “Heterobicyclic amides as inhibitors of CD38” (Ribon Therapeutics, Inc., priority 2019, dated 2022)

Target: Human CD38 (Homo sapiens (Human), UniProt P28907)
Experiment: CD38 enzyme assay
Type: biochemical
Details: 2 nM CD38, NAD+ substrate, absorbance at 405 nm
In short: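 IC50 values come from fitting % inhibition against compound concentration with a 4-parameter logistic, or a 3-parameter fit with top/bottom fixed at 100/0 or Hill at 1. Inhibition is scaled between DMSO wells and positive-control wells treated with a quinolinone CD38 inhibitor.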

Human CD38, sequence (P28907 whole entry): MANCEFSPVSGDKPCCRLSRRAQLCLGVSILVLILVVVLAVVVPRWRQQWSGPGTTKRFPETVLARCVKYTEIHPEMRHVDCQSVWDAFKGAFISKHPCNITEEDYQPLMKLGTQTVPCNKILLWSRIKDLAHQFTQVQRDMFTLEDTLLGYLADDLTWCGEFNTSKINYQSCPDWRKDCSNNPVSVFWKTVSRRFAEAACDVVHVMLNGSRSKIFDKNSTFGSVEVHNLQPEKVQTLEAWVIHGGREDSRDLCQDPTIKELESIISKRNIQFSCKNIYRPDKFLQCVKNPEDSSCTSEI

| IC50 [nM] | Compound |
| --- | --- |
| 10 to 100 | COCCO[C@H]1CC[C@H](NC(=O)c2nc(-n3ccnc3)nc3ccsc23)CC1 [Example 18, 2-(1H-Imidazol-1-yl)-N-((1r,4r)-4-(2-methoxyethoxy)cyclohexyl)thieno[3,2-d]pyrimidine-4-carboxamide] |
| < 10 | O=C(N[C@H]1CC[C@H](CCO)CC1)c1nc(-n2ccnc2)nc2cc[nH]c12 [Example 200, N-((1r,4r)-4-(2-hydroxyethyl)cyclohexyl)-2-(1H-imidazol-1-yl)-5H-pyrrolo[3,2-d]pyrimidine-4-carboxamide] |
| 10 to 100 | CN(CC(F)(F)F)[C@H]1CC[C@H](NC(=O)c2nc(-n3ccnc3)nc3cn[nH]c23)CC1 [Example 248, 5-(1H-imidazol-1-yl)-N-((1r,4r)-4-(methyl(2,2,2-trifluoroethyl)amino)cyclohexyl)-1H-pyrazolo[4,3-d]pyrimidine-7-carboxamide] |
| < 10 | N#CC[C@H]1CC[C@H](NC(=O)c2nc(-n3ccnc3)cc3cn[nH]c23)CC1 [Example 219, N-((1r,4r)-4-(cyanomethyl)cyclohexyl)-5-(1H-imidazol-1-yl)-1H-pyrazolo[3,4-c]pyridine-7-carboxamide] |
| 100 to 1000 | CN(CCC(F)(F)F)[C@H]1CC[C@@H](NC(=O)c2nc(-n3ccnc3)nc3cc[nH]c23)CC1 [Example 111, 2-(1H-imidazol-1-yl)-N-((1s,4s)-4-(methyl(3,3,3-trifluoropropyl)amino)cyclohexyl)-5H-pyrrolo[3,2-d]pyrimidine-4-carboxamide] |
| 10 to 100 | O=C(NC1CCC(F)(F)CC1)c1nc(-n2ccnc2)nc2nc[nH]c12 [Example 152] |
| < 10 | O=C(Nc1ccc2c(c1)CNC2)c1nc(-n2ccnc2)cc2cn[nH]c12 [Example 236, 5-(1H-imidazol-1-yl)-N-(isoindolin-5-yl)-1H-pyrazolo[3,4-c]pyridine-7-carboxamide] |
| 10 to 100 | O=C(N[C@H]1CC[C@H](NCC(F)F)CC1)c1nc(-n2ccnc2)nc2cc[nH]c12 [Example 105, N-((1r,4r)-4-((2,2-difluoroethyl)amino)cyclohexyl)-2-(1H-imidazol-1-yl)-5H-pyrrolo[3,2-d]pyrimidine-4-carboxamide] |
| < 10 | O=C(Nc1ccncc1)c1nc(-n2ccnc2)nc2cc[nH]c12 [Example 138] |
| 100 to 1000 | COCCO[C@H]1CC[C@H](NC(=O)c2cc(-n3ccnc3)cc3nc[nH]c23)CC1 [Example 1, 5-(1H-Imidazol-1-yl)-N-((1r,4r)-4-(2-methoxyethoxy)cyclohexyl)-1H-benzo[d]imidazole-7-carboxamide] |
| 10 to 100 | O=C(N[C@H]1CC[C@@H](O)CC1)c1nc(-n2ccnc2)nc2cc[nH]c12 [Example 186] |
| < 10 | O=C(NC1CCC1)c1nc(-n2ccnc2)nc2cc[nH]c12 [Example 77, N-Cyclobutyl-2-(1H-imidazol-1-yl)-5H-pyrrolo[3,2-d]pyrimidine-4-carboxamide] |
| < 10 | COCCOc1ccc(NC(=O)c2nc(-n3ccnc3)nc3cc[nH]c23)cc1F [Example 131] |
| 10 to 100 | C[C@@](O)(C(=O)N[C@H]1CC[C@H](NC(=O)c2nc(-n3ccnc3)nc3cc[nH]c23)CC1)C(F)(F)F (single isomer, unassigned) [Example 127a] |
| 10 to 100 | O=C(NCc1c(F)cccc1C(F)(F)F)c1nc(-n2ccnc2)cc2cn[nH]c12 [Example 48, N-(2-Fluoro-6-(trifluoromethyl)benzyl)-5-(1H-imidazol-1-yl)-1H-pyrazolo[3,4-c]pyridine-7-carboxamide] |
| < 10 | O=C(N[C@H]1CC[C@H](C2(O)CC2)CC1)c1nc(-n2ccnc2)cc2cn[nH]c12 [Example 228, N-((1r,4r)-4-(1-hydroxycyclopropyl)cyclohexyl)-5-(1H-imidazol-1-yl)-1H-pyrazolo[3,4-c]pyridine-7-carboxamide] |
| 10 to 100 | O=C(NC1CCN(CCC(F)(F)F)CC1)c1nc(-n2ccnc2)nc2cc[nH]c12 [Example 55, 2-(1H-Imidazol-1-yl)-N-(1-(3,3,3-trifluoropropyl)piperidin-4-yl)-5H-pyrrolo[3,2-d]pyrimidine-4-carboxamide] |
| 10 to 100 | CC(=O)NC[C@H]1CC[C@H](NC(=O)c2nc(-n3ccnc3)cc3cn[nH]c23)CC1 [Example 209, N-((1r,4r)-4-(acetamidomethyl)cyclohexyl)-5-(1H-imidazol-1-yl)-1H-pyrazolo[3,4-c]pyridine-7-carboxamide] |
| < 10 | N#CCO[C@H]1CC[C@H](NC(=O)c2nc(-n3ccnc3)nc3cn[nH]c23)CC1 [Example 214, N-((1r,4r)-4-(cyanomethoxy)cyclohexyl)-5-(1H-imidazol-1-yl)-1H-pyrazolo[4,3-d]pyrimidine-7-carboxamide] |

| IC50 [nM] | Compound |
| --- | --- |
| < 10 | C[C@]1(O)CC[C@@H](NC(=O)c2nc(-n3ccnc3)nc3cc[nH]c23)CC1 [Example 175] |
| < 10 | O=C(NC1CCOC1)c1nc(-n2ccnc2)nc2cc[nH]c12 (stereo not shown) [Example 91, 2-(1H-Imidazol-1-yl)-N-(tetrahydrofuran-3-yl)-5H-pyrrolo[3,2-d]pyrimidine-4-carboxamide] |
| < 10 | O=C(Nc1ccc2c(c1)CNC2)c1nc(-n2ccnc2)nc2cc[nH]c12 [Example 211, 2-(1H-imidazol-1-yl)-N-(isoindolin-5-yl)-5H-pyrrolo[3,2-d]pyrimidine-4-carboxamide] |
| < 10 | O=C(Nc1ccccc1Cl)c1nc(-n2ccnc2)nc2cc[nH]c12 [Example 89, N-(2-Chlorophenyl)-2-(1H-imidazol-1-yl)-5H-pyrrolo[3,2-d]pyrimidine-4-carboxamide] |
| > 1000 | COCCO[C@H]1CC[C@H](NC(=O)c2nc(-c3cn[nH]n3)nc3cc[nH]c23)CC1 [Example 35, N-((1r,4r)-4-(2-Methoxyethoxy)cyclohexyl)-2-(2H-1,2,3-triazol-4-yl)-5H-pyrrolo[3,2-d]pyrimidine-4-carboxamide] |
| 10 to 100 | O=C(N[C@H]1CC[C@H](N2CC(F)(F)C2)CC1)c1nc(-n2ccnc2)cc2cn[nH]c12 [Example 227, N-((1r,4r)-4-(3,3-difluoroazetidin-1-yl)cyclohexyl)-5-(1H-imidazol-1-yl)-1H-pyrazolo[3,4-c]pyridine-7-carboxamide] |
| 10 to 100 | C[C@]1(NCC(F)(F)F)CC[C@@H](NC(=O)c2nc(-n3ccnc3)nc3cn[nH]c23)CC1 [Example 274, 5-(1H-imidazol-1-yl)-N-((1s,4s)-4-methyl-4-((2,2,2-trifluoroethyl)amino)cyclohexyl)-1H-pyrazolo[4,3-d]pyrimidine-7-carboxamide] |
| 100 to 1000 | COCCO[C@H]1CC[C@H](NC(=O)c2cc(-n3ccnc3)c(F)c3cc[nH]c23)CC1 [Example 29, 4-Fluoro-5-(1H-imidazol-1-yl)-N-((1r,4r)-4-(2-methoxyethoxy)cyclohexyl)-1H-indole-7-carboxamide] |
| 100 to 1000 | CC1(F)CN([C@H]2CC[C@@H](NC(=O)c3nc(-n4ccnc4)nc4cn[nH]c34)CC2)C1 [Example 256, N-((1s,4s)-4-(3-fluoro-3-methylazetidin-1-yl)cyclohexyl)-5-(1H-imidazol-1-yl)-1H-pyrazolo[4,3-d]pyrimidine-7-carboxamide] |
| < 10 | O=C(N[C@H]1CC[C@H](C(F)(F)F)CC1)c1nc(-n2ccnc2)cc2cn[nH]c12 [Example 171] |
| < 10 | CC(C)(C#N)c1ccc(NC(=O)c2nc(-n3ccnc3)nc3cc[nH]c23)cc1 [Example 118, N-[4-(1-cyano-1-methyl-ethyl)phenyl]-2-imidazol-1-yl-5H-pyrrolo[3,2-d]pyrimidine-4-carboxamide] |
| 100 to 1000 | O=C(N[C@H]1CC[C@@H](N2CCOCC2)CC1)c1nc(-n2ccnc2)nc2cc[nH]c12 [Example 169] |
| 10 to 100 | CC(C)(N[C@H]1CC[C@H](NC(=O)c2nc(-n3ccnc3)cc3cn[nH]c23)CC1)C(F)F [Example 253, N-((1r,4r)-4-((1,1-difluoro-2-methylpropan-2-yl)amino)cyclohexyl)-5-(1H-imidazol-1-yl)-1H-pyrazolo[3,4-c]pyridine-7-carboxamide] |
| 100 to 1000 | C[C@]1(NCC(F)(F)F)CC[C@H](NC(=O)c2nc(-n3ccnc3)cc3cn[nH]c23)CC1 [Example 240, 5-(1H-imidazol-1-yl)-N-((1r,4r)-4-methyl-4-((2,2,2-trifluoroethyl)amino)cyclohexyl)-1H-pyrazolo[3,4-c]pyridine-7-carboxamide] |
| 10 to 100 | CC1(NC(=O)c2nc(-n3ccnc3)nc3cc[nH]c23)CCOCC1 [Example 135] |
| < 10 | Cc1cc2nc(-n3ccnc3)nc(C(=O)NC3CCC(F)(F)CC3)c2[nH]1 [Example 173] |
| 100 to 1000 | O=C(NCc1c(F)cccc1C(F)(F)F)c1cc(-n2ccnc2)nc2cn[nH]c12 [Example 15, N-(2-Fluoro-6-(trifluoromethyl)benzyl)-5-(1H-imidazol-1-yl)-1H-pyrazolo[4,3-b]pyridine-7-carboxamide] |
| 10 to 100 | C[C@H](O)COC1CCC(NC(=O)c2nc(-n3ccnc3)nc3cc[nH]c23)CC1 (stereo partly drawn) [Example 125b, N-((1R,4r)-4-((S)-2-hydroxypropoxy)cyclohexyl)-2-(1H-imidazol-1-yl)-5H-pyrrolo[3,2-d]pyrimidine-4-carboxamide] |

| Compound | IC50 [nM] |
| --- | --- |
| C[C@H](O)[C@H]1CC[C@H](NC(=O)c2nc(-n3ccnc3)cc3ccsc23)CC1 [Example 264b, N-((1S,4r)-4-((S)-1-hydroxyethyl)cyclohexyl)-5-(1H-imidazol-1-yl)thieno[2,3-c]pyridine-7-carboxamide] | 10 to 100 |
| C[C@@H](O)[C@H]1CC[C@H](NC(=O)c2nc(-n3ccnc3)cc3ccsc23)CC1 [Example 264a, N-((1R,4r)-4-((R)-1-hydroxyethyl)cyclohexyl)-5-(1H-imidazol-1-yl)thieno[2,3-c]pyridine-7-carboxamide] | < 10 |
| CC(F)(F)CN[C@H]1CC[C@H](NC(=O)c2nc(-n3ccnc3)cc3cn[nH]c23)CC1 [Example 193, N-((1r,4r)-4-((2,2-difluoropropyl)amino)cyclohexyl)-5-(1H-imidazol-1-yl)-1H-pyrazolo[3,4-c]pyridine-7-carboxamide] | 10 to 100 |
